Experimental data from ChEMBL document CHEMBL1201862, “PubChem BioAssay data set” (2004).
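1) Cells in 96-well plates. 2) Compound, 48 h, 5 concentrations. 3) Linear interpolation between surrounding doses. 4) Unreached endpoint = highest concentration. At the GI50, growth is halved.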 Calls of active or inactive are those of the source. Rule as the data show it: active = GI50 up to about 1.1 µM and inactive = higher.

What was measured:
Assay in all cases: NCI tumour cell line growth inhibition, 48 h
ACHN = test system: ACHN
CCRF-CEM = test system: CCRF-CEM
COLO 205 = test system: COLO 205
HL-60 = test system: HL-60
LOX IMVI = test system: LOX IMVI
MOLT-4 = test system: MOLT-4
Malme-3M = test system: Malme-3M
NCI-H226 = test system: NCI-H226
NCI-H23 = test system: NCI-H23
NCI-H522 = test system: NCI-H522
OVCAR-3 = test system: OVCAR-3
SK-OV-3 = test system: SK-OV-3
TK-10 = test system: TK-10
UACC-62 = test system: UACC-62
HCT-15 = test system: HCT-15
SK-MEL-2 = test system: SK-MEL-2

O=C1CC2C(=O)N(Cc3ccccc3)C1C=C2S(=O)(=O)c1ccccc1 (stereo not drawn)
GI50 (ACHN): > 100 µM (inactive)
GI50 (CCRF-CEM): > 100 µM (inactive)
GI50 (COLO 205): > 100 µM (inactive)
GI50 (HL-60): > 100 µM (inactive)
GI50 (LOX IMVI): > 100 µM (inactive)
GI50 (MOLT-4): > 100 µM (inactive)
GI50 (Malme-3M): > 100 µM (inactive)
GI50 (NCI-H226): > 100 µM (inactive)
GI50 (NCI-H23): > 100 µM (inactive)
GI50 (NCI-H522): > 100 µM (inactive)
GI50 (OVCAR-3): > 100 µM (inactive)
GI50 (SK-OV-3): > 100 µM (inactive)
GI50 (TK-10): > 100 µM (inactive)
GI50 (UACC-62): > 100 µM (inactive)

O=C(NCCS(=O)(=O)N1C(=O)C2CCCN2C(=O)[C@@H]1Cc1ccccc1)OCc1ccccc1 (stereo partly drawn)
GI50 (ACHN): 35 µM (inactive)
GI50 (CCRF-CEM): 45.4 µM (inactive)
GI50 (COLO 205): 26.2 µM (inactive)
GI50 (HCT-15): 51.8 µM
GI50 (HL-60): 24.2 µM (inactive)
GI50 (LOX IMVI): 50.6 µM (inactive)
GI50 (MOLT-4): 48 µM (inactive)
GI50 (Malme-3M): 74 µM (inactive)
GI50 (NCI-H226): 51.8 µM (inactive)
GI50 (NCI-H23): 67.6 µM (inactive)
GI50 (NCI-H522): 24.7 µM (inactive)
GI50 (OVCAR-3): 33.5 µM (inactive)
GI50 (SK-OV-3): > 100 µM (inactive)
GI50 (TK-10): 38.1 µM (inactive)
GI50 (UACC-62): 40 µM (inactive)

CCN1CCC(O)(c2ccc(OC)cc2)C(C(=O)c2ccc(OC)cc2)C1 (stereo not drawn)
GI50 (ACHN): 16.4 µM (inactive)
GI50 (COLO 205): 22.9 µM (inactive)
GI50 (HCT-15): 20.3 µM
GI50 (HL-60): 15.9 µM (inactive)
GI50 (LOX IMVI): 20 µM (inactive)
GI50 (MOLT-4): 17.5 µM (inactive)
GI50 (NCI-H226): > 100 µM (inactive)
GI50 (NCI-H23): 17.7 µM (inactive)
GI50 (NCI-H522): 1.97 µM (inactive)
GI50 (OVCAR-3): 17.6 µM (inactive)
GI50 (SK-MEL-2): 19.6 µM (inactive)
GI50 (SK-OV-3): > 100 µM (inactive)
GI50 (TK-10): 3.28 µM (inactive)
GI50 (UACC-62): 16.9 µM (inactive)

CC#Cc1c(C#CC)c(OC)c2c(c1OC)C(=O)c1ccccc1C2=O
GI50 (ACHN): 14.3 µM (inactive)
GI50 (CCRF-CEM): > 100 µM (inactive)
GI50 (COLO 205): > 100 µM (inactive)
GI50 (HCT-15): 61.7 µM
GI50 (HL-60): 33 µM (inactive)
GI50 (LOX IMVI): > 100 µM (inactive)
GI50 (MOLT-4): > 100 µM (inactive)
GI50 (Malme-3M): > 100 µM (inactive)
GI50 (NCI-H23): 29.8 µM (inactive)
GI50 (NCI-H522): 3.15 µM (inactive)
GI50 (OVCAR-3): > 100 µM (inactive)
GI50 (SK-MEL-2): 38.5 µM (inactive)
GI50 (SK-OV-3): 34.9 µM (inactive)
GI50 (TK-10): 41.8 µM (inactive)
GI50 (UACC-62): 23.9 µM (inactive)

Cc1cccc(C)c1NC(=O)CCCC(=O)C1/C(=N/NC(=O)CC#N)CCC/C1=N\NC(=O)CC#N (stereo not drawn)
GI50 (ACHN): > 100 µM (inactive)
GI50 (CCRF-CEM): > 100 µM (inactive)
GI50 (COLO 205): > 100 µM (inactive)
GI50 (HCT-15): > 100 µM
GI50 (HL-60): > 100 µM (inactive)
GI50 (MOLT-4): > 100 µM (inactive)
GI50 (Malme-3M): > 100 µM (inactive)
GI50 (NCI-H226): > 100 µM (inactive)
GI50 (NCI-H23): > 100 µM (inactive)
GI50 (NCI-H522): > 100 µM (inactive)
GI50 (OVCAR-3): > 100 µM (inactive)
GI50 (SK-MEL-2): > 100 µM (inactive)
GI50 (SK-OV-3): > 100 µM (inactive)
GI50 (TK-10): > 100 µM (inactive)
GI50 (UACC-62): > 100 µM (inactive)

CC(C)(C)OC1=C(OC(C)(C)C)C(O)(c2ccc(Cl)cc2)C1=O (stereo not drawn)
GI50 (ACHN): > 100 µM (inactive)
GI50 (CCRF-CEM): > 100 µM (inactive)
GI50 (COLO 205): > 100 µM (inactive)
GI50 (HCT-15): > 100 µM
GI50 (HL-60): > 100 µM (inactive)
GI50 (LOX IMVI): > 100 µM (inactive)
GI50 (MOLT-4): > 100 µM (inactive)
GI50 (Malme-3M): > 100 µM (inactive)
GI50 (NCI-H23): > 100 µM (inactive)
GI50 (OVCAR-3): > 100 µM (inactive)
GI50 (SK-OV-3): > 100 µM (inactive)
GI50 (TK-10): > 100 µM (inactive)
GI50 (UACC-62): > 100 µM (inactive)

Cc1cc2c3ccccc3n(C)c2c2c1C(=O)c1ccccc1C2=O
GI50 (CCRF-CEM): 5.18 µM (inactive)
GI50 (COLO 205): 21.1 µM (inactive)
GI50 (HL-60): 7.82 µM (inactive)
GI50 (MOLT-4): 5.83 µM (inactive)
GI50 (Malme-3M): 18.2 µM (inactive)
GI50 (NCI-H226): 10.8 µM (inactive)
GI50 (NCI-H23): 15.6 µM (inactive)
GI50 (NCI-H522): 16.7 µM (inactive)
GI50 (OVCAR-3): 13.4 µM (inactive)
GI50 (SK-MEL-2): 20 µM (inactive)
GI50 (SK-OV-3): 22.2 µM (inactive)
GI50 (TK-10): 32.5 µM (inactive)
GI50 (UACC-62): 20.8 µM (inactive)

CCCCCCCc1cc(OC(=O)c2c(C)cc(OC)cc2O)cc(O)c1C(=O)O
GI50 (ACHN): 24.7 µM (inactive)
GI50 (CCRF-CEM): 24.7 µM (inactive)
GI50 (COLO 205): 20.7 µM (inactive)
GI50 (HL-60): 26.5 µM (inactive)
GI50 (LOX IMVI): 21.3 µM (inactive)
GI50 (MOLT-4): 27.7 µM (inactive)
GI50 (Malme-3M): 19.8 µM (inactive)
GI50 (NCI-H23): 20.3 µM (inactive)
GI50 (NCI-H522): 23.8 µM (inactive)
GI50 (OVCAR-3): 14.6 µM (inactive)
GI50 (SK-MEL-2): 19.1 µM (inactive)
GI50 (SK-OV-3): 24.5 µM (inactive)
GI50 (TK-10): 28.7 µM (inactive)
GI50 (UACC-62): 21 µM (inactive)
